Measured values published in patent publication US20150011508A1, “COMPOUNDS AND COMPOSITIONS AS C-KIT KINASE INHIBITORS” (priority 2011, published 2015).

Molecular target: T1, c-kit (Homo sapiens, UniProt P10721)
T1 construct: human Mo7e cells which endogenously express c-kit; endogenous in cells; host or cells: human Mo7e cells (SCF-dependent promegakaryocytic leukemia line)
Assay: Mo7e cell proliferation assay (SCF dependent proliferation)
Assay type: cell-based
Conditions: human Mo7e cells stimulated with human recombinant SCF, 48 h, CellTiter Glo, 1% FBS (footnote)
Summary of the method: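 SCF-dependent proliferation of human Mo7e cells, which express c-kit endogenously, was measured after 48 h at 37° C by CellTiter Glo luminescence. IC50 was taken as the concentration giving a response halfway between the baseline and maximum responses.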

T1 sequence (P10721 26-976): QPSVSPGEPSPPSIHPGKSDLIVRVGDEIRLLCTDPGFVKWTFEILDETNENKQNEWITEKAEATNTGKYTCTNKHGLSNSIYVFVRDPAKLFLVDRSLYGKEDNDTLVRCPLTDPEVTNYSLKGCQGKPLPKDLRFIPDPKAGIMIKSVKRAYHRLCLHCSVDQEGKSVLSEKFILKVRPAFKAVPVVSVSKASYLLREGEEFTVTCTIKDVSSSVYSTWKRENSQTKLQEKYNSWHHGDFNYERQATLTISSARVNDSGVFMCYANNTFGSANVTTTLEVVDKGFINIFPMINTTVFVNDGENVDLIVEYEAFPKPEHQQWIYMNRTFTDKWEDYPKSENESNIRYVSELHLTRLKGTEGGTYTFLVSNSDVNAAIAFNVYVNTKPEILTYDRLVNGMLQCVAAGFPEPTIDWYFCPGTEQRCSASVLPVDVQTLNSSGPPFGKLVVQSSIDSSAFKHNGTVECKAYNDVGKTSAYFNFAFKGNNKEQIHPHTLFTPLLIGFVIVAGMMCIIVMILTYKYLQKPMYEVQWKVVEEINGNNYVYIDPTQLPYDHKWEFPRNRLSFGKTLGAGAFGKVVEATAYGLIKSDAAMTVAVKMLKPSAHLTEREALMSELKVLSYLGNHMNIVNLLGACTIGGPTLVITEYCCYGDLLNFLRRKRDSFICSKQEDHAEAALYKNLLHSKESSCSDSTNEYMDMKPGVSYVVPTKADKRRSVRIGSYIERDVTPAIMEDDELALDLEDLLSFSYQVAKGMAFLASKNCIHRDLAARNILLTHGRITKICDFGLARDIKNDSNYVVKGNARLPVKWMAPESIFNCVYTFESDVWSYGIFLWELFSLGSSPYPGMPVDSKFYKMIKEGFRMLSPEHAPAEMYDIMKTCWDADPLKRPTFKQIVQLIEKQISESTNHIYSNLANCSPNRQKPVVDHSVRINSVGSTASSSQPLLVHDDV

IC50 (Table 1) | IC50 (Table 2) | SMILES
9 nM |  | Cc1ccc(-c2noc(CCC(C)(C)O)n2)cc1NC(=O)c1cnc2cc(-c3ccn(C)n3)ccn12 [F42]
 | 284 nM | Cc1ccc(Nc2noc(C(C)C)n2)cc1NC(=O)c1cnc2ccccn12 [F174]
93 nM |  | Cc1ccc(-c2noc(COCCOC(C)(C)C)n2)cc1NC(=O)c1cnc2ccccn12 [F34]
 | 104 nM | Cc1ccc(-c2noc(COCCOCC(F)(F)F)n2)cc1NC(=O)c1cnc2ccc(F)cn12 [F175]
 | 367 nM | Cc1ccc(-c2noc(CCCS(N)(=O)=O)n2)cc1NC(=O)c1cnc2ccccn12 [F110]
 | 457 nM | Cc1ccc(-c2noc(C(C)(C)NS(C)(=O)=O)n2)cc1NC(=O)c1cnc2ccccn12 [F147]
48 nM |  | COC(C)(CCc1nc(-c2ccc(C)c(NC(=O)c3cnc4cc(C)ccn34)c2)no1)C(F)(F)F (centres unmarked) [F90]
 | 155 nM | Cc1ccc(-c2noc(CNC(=O)OCCF)n2)cc1NC(=O)c1cnc2ccccn12 [F157]
 | 1590 nM | Cc1ccc(-c2nc(C(C)(C)C)no2)cc1NC(=O)c1cnc2ccccn12 [F225]
35 nM |  | Cc1ccc2ncc(C(=O)Nc3cc(-c4noc(CCC(C)(O)C(F)(F)F)n4)ccc3C)n2c1 (centres unmarked) [F72]

SMILES | IC50 (Table 1) | IC50 (Table 2)
CCOCCc1nc(-c2ccc(C)c(NC(=O)c3cnc4ccccn34)c2)no1 [F10] | 42 nM | 
